The values below come from US11215608B2, “Methods of determining cellular chemosensitivity” (Dana-Farber Cancer Institute, Inc., priority 2006, dated 2022).

One test relates to mouse liver mitochondria. In words: Cytochrome c release from mouse liver mitochondria. Type of test: biochemical. The conditions noted are these: no tBID, also at 10-fold higher concentrations. The method, then:
(§1) Mitochondria were purified from liver and FL5.12cells as previously described (Letai et al., 2002). Mitochondria were purified from leukemia cells and 2B4 cells as previously described for FL5.12 cells. Mitochondria were incubated with treatments for 45 (mouse liver mitochondria) or 35 minutes (FL5.12, 2B4, and leukemic mitochondria). Release of cytochrome c was determined by a comparison of cytochrome c in the pellet and supernatant following treatment, quantitated by ELISA (R&D systems). When results of multiple experiments were averaged, results from solvent-only (DMSO) treatments values were subtracted from each, so that 0 release reflects that observed in solvent-only treatments.
To test if selective binding corresponded to ability of individual BH3 domains to selectively antagonize antiapoptotic function, a purified mitochondrial system was constructed in which the critical apoptosis decision making molecular machinery was reconstituted. […] The multidomain proapoptotic function was provided by the BAK which resides in mouse liver Mitochondria; mouse liver mitochondria contain no detectable BAX protein (Letai et al., 2002). The dominant antiapoptotic function was provided by one of the five different recombinant antiapoptotic proteins used in the binding assays. BH3 peptides provided the sensitizer function.
Furthermore, when the panel of sensitizer BH3 peptides was tested in the presence of the antiapoptotic protein BCL-XL, there was still no cytochrome c release, formally ruling out the possibility that the BH3 peptides were somehow directly converting antiapoptotic proteins to a proapoptotic function (FIG. 2). To induce MOMP and cytochrome c release, there appears to be an absolute requirement for an activator function, here provided by the tBID protein.

The next test has as its target T1, GST-BCL-2 (Homo sapiens, UniProt P10415).
T1 construct: In each case, the C-terminus transmembrane domain was truncated to maintain solubility in aqueous solution; made in house; host or cells: bacteria
In words: BIM BH3 displacement by fluorescence polarization. Type of test: binding. Particulars: 25 nM fluorescein-linked BIM BH3, 0.5 uM GST-BCL-2. The method, then: (§2) Binding assays were performed using fluorescence polarization as previously described (Letai et al., 2002). A minimum of three independent experiments were used to determine each dissociation constant.
(§3) As one test of this hypothesis, the ability of sensitizer peptides to displace tBID from antiapoptotic protein Bcl-w was examined utilizing a GST-pulldown assay. Proteins bound to glutathioneagarose beads were eluted with glutathione and analyzed by Western blot. In FIG. 3A, tBID is displaced from BC1-w by sensitizer BH3 peptides in a pattern that replicates the pattern in FIG. 1D. […] These experiments support the ability of sensitizer BH3 peptides to displace activators from the antiapoptotic binding cleft.
A general note: Fluorescence polarisation rises when a labelled molecule tumbles more slowly, as on binding a larger partner.

Another test concerns BAX. In words: BAX oligomerization / activation in mitochondria of IL-3 starved FL5.12-BCL-2 cells. Particulars: peptides 30 uM, ABT-737 10 uM, 35 minutes. Type of test: biochemical, murine. How it is done: Mitochondria were isolated from wt FL5.12 cells and FL5.12-BCL-2 cells in the presence of IL-3, and from FL5.12-BCL-2 cells following 24 hours of IL-3 deprivation. […] Mitochondrial pellets were subjected to chemical crosslinking as previously described (Letai et al., 2002).
This model predicts that BCL-2 acts upstream of BAX activation by intercepting activator BH3 molecules. To test this prediction, in FIG. 6E, immunoprecipitation was performed with an antibody that recognizes only the activated form of BAX which exposes an N-terminus epitope (Desagher ct al., 1999; Hsu and You le, 1997). wt or BCL-2 expressing FL5.12 cells were exposed to IL-3 withdrawal as indicated.

For a further test, the system named is leukemic mitochondria. In words: Cytochrome c release from BCL-2 dependent leukemia mitochondria. Format: biochemical, mouse. How it is done: as §1
Leukemia prone mice were generated as previously described (Letai, 2004). Mouse experimental protocols conform to the relevant regulatory standards and were approved by the Dana-Farber Cancer Institute Animal Care and Use Committee.
Previous results have described a mouse acute lymphocytic leukemia model in which c-myc is constitutively expressed and human BCL-2 is repressibly expressed. In this model, when BCL-2 transgene expression is eliminated by administration of doxycycline, the leukemic cells undergo apoptosis, resulting in rapid resolution of the leukemia (Letai, 2004). This provides an ideal in vivo model of a BCL-2 dependent cancer. It was hypothesized that dependence on BCL-2 was due to a similar mechanism to that of the IL-3 deprived FL5.12-BCL-2 cells—that is, a death signal was being initiated and carried by an activator BH3 molecule, but BCL-2 was binding it and preventing its interaction with multidomain proapoptotic proteins.
Mitochondria were isolated from leukemia cells and exposed to sensitizer BH3 peptides. Subsequently, cytochrome c release was measured. As an internal control, mitochondria were isolated from liver from the leukemic mice in parallel (FIG. 8A).

For a further test, the system named is CLL mitochondria. In words: Cytochrome c release from CLL mitochondria. Type of test: biochemical, human. Particulars: peptides or compounds 100 μM. How it is done: Alternatively, mitochondria were purified from freshly isolated CLL cells and cell lines by mechanical disruption followed by differential centrifugation, as previously described (Letai et al., 2002). Mitochondrial suspensions were made at 0.5 mg protein/ml, except for the case of ABT-737 and negative control enantiomer treatments, where 0.1 mg/ml was used. Release of cytochrome c was determined by a comparison of cytochrome c in the pellet and supernatant quantitated by ELISA (R&D systems).
CLL mitochondria were incubated with BH3 peptides as well as ABT-737 and negative control enantiomer (FIG. 14). […] This pattern is diagnostic of mitochondrial BCL-2 dependence. […] Since the BH3 peptides in the sensitizer panel lack the ability to directly activate BAX and BAK, these experiments also implicated the presence of an activator molecule constitutively sequestered by BCL-2 in CLL.

A further test relates to SU-DHL6. In words: BH3 profiling, cytochrome c release from lymphoma mitochondria. Particulars: SU-DHL 6. Type of test: biochemical. The source says:
(§4) BH3 profiling allows for the prediction of response of cancer cells to anti-cancer therapeutics. For the purposes of this application, therapeutics can be divided into those that target anti-apoptotic BCL-2 proteins, and conventional agents. As a model test system, four lymphoma cell lines SU-DHL4, SU-DHL6, SU-DHL8, and SU-DHL 10 were employed. To perform BH3 profiling, the ability of a panel of sensitizer peptides to induce mitochondrial outer membrane permeabilization (MOMP) in mitochondria isolated from the lymphoma cells were tested. […] MOMP was measured by quantifying cytochrome c release by ELISA.
SU-DHL4 and SU-DHL6 a “primed” phenotype, based on the sensitivity to sensitizer BH3 peptides. […] SU-DHL-10 responded poorly to both sensitizer and activator peptides, indicating the loss of the effector arm.

In the next test the test system is SU-DHL8. The description is as above. Format: biochemical. The conditions noted are these: SU-DHL-8.
From the text: as §4

Test [1] relates to SU-DHL4, SU-DHL6, SU-DHL8, SU-DHL 10. In words: Lymphoma cell line sensitivity to agents. Particulars: four lymphoma cell lines compared. Type of test: cell-based. How it is done: Only cells that are dependent on BCL-2 for survival are predicted to respond to BCL-2 antagonists like ABT-737. […] To test this, cells were treated with vincristine.
In the next test the target is T2, GST-MCL-1 (Homo sapiens, UniProt Q07820).
T2 construct: In each case, the C-terminus transmembrane domain was truncated to maintain solubility in aqueous solution; made in house; host or cells: bacteria (construct a gift of Tilman Oltersdorf)
In words: BIM BH3 displacement by fluorescence polarization. Format: binding. Particulars: 25 nM fluorescein-linked BIM BH3, 0.1 uM GST-MCL-1. The method, then:
as §2, §3

Test [2] concerns FLAG-MCL-1-transfected 2B4 cells. In words: BH3 peptides electroporated into dexamethasone-treated FLAG-MCL-1 2B4 cells. Format: cell-based, murine. The conditions noted are these: peptide transfected by electroporation. The source says:
Percent killing was ascertained by Annexin-V staining. […] N=3 and the error bars represent the standard deviation.

T2 sequence (Q07820 1-327): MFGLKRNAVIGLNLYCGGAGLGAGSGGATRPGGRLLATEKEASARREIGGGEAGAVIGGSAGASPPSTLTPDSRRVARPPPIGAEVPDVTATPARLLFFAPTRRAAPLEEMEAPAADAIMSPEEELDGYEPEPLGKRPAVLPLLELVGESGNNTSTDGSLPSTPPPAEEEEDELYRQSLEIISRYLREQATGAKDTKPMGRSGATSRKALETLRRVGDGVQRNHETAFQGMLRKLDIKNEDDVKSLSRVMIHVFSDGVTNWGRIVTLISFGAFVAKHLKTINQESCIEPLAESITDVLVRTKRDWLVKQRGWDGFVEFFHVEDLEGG
T1 sequence (P10415 1-218 limits assumed): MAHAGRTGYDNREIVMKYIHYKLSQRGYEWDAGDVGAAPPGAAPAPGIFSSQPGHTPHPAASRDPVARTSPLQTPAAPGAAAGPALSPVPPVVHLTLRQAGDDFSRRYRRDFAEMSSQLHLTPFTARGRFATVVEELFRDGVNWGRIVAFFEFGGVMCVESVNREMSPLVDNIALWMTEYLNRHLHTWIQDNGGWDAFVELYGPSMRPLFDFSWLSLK

Consider `CSCC[C@H](NC(=O)[C@H](CCCNC(=N)N)NC(=O)[C@H](CCCNC(=N)N)NC(=O)[C@H](CC(C)C)NC(=O)[C@H](CCC(=O)O)NC(=O)[C@H](CCCNC(=N)N)NC(=O)CNC(=O)[C@H](Cc1ccc(O)cc1)NC(=O)[C@H](CCCNC(=N)N)NC(=O)[C@H](CCC(N)=O)NC(=O)[C@H](C)NC(=O)[C@H](C)NC(=O)[C@H](Cc1c[nH]c2ccccc12)NC(=O)[C@H](CC(C)C)NC(=O)CCCCCNC(=S)Nc1ccc2c(c1)C(=O)OC21c2ccc(O)cc2Oc2cc(O)ccc21)C(=O)N[C@@H](CO)C(=O)N[C@@H](CC(=O)O)C(=O)N[C@@H](CCC(=O)O)C(=O)N[C@@H](Cc1ccccc1)C(=O)N[C@@H](CCC(=O)O)C(=O)NCC(=O)N[C@@H](CO)C(=O)N[C@@H](Cc1ccccc1)C(=O)N[C@@H](CCCCN)C(=O)NCC(=O)N[C@@H](CC(C)C)C(=O)O` [BAD], for which the “cytochrome c release by peptide alone” value in the test with mouse liver mitochondria was “none of the sensitizer BH3 peptides by themselves can induce cytochrome c release significantly above background”. Moreover, the “displacement of BIM BH3 from BCL-2” value on GST-BCL-2 is on record as “efficiently displaces BIM BH3 from BCL-2”. The BAX oligomerization result with BAX is recorded as “results in BAX oligomerization”. In addition, the results for the cytochrome c release result with leukemic mitochondria and in the test with CLL mitochondria were “capable of inducing near total cytochrome c release” and “induce cytochrome c release”, respectively. The “mitochondrial sensitivity to BH3 peptide” value in the test with SU-DHL6 is “weaker, but definite, response”.
As to `CC[C@H](C)[C@H](NC(=O)[C@H](CCC(=O)O)NC(=O)[C@H](CCCNC(=N)N)NC(=O)[C@H](C)NC(=O)[C@H](Cc1c[nH]c2ccccc12)NC(=O)[C@H](CCC(N)=O)NC(=O)[C@H](CCC(=O)O)NC(=O)CCCCCNC(=S)Nc1ccc2c(c1)C(=O)OC21c2ccc(O)cc2Oc2cc(O)ccc21)C(=O)NCC(=O)N[C@@H](C)C(=O)N[C@@H](CCC(N)=O)C(=O)N[C@@H](CC(C)C)C(=O)N[C@@H](CCCNC(=N)N)C(=O)N[C@@H](CCCNC(=N)N)C(=O)N[C@@H](CCSC)C(=O)N[C@@H](C)C(=O)N[C@@H](CC(=O)O)C(=O)N[C@@H](CC(=O)O)C(=O)N[C@@H](CC(C)C)C(=O)N[C@@H](CC(N)=O)C(=O)N[C@@H](C)C(=O)O` [PUMA], in the test with mouse liver mitochondria, the “cytochrome c release by peptide alone” value is “none of the sensitizer BH3 peptides by themselves can induce cytochrome c release significantly above background”. Also, the cytochrome c release entry in the test on leukemic mitochondria is “capable of inducing near total cytochrome c release”; in the test with CLL mitochondria it was “induce cytochrome c release”. Further, the “mitochondrial sensitivity to BH3 peptide” value with SU-DHL6 is recorded as “strong”; with SU-DHL8, “limited response”.
Regarding `CC[C@]1(O)C[C@H]2CN(CCc3c([nH]c4ccccc34)[C@@](C(=O)OC)(c3cc4c(cc3OC)N(C=O)[C@H]3[C@@](O)(C(=O)OC)[C@H](OC(C)=O)[C@]5(CC)C=CCN6CC[C@]43[C@@H]65)C2)C1` [vincristine], the “cell sensitivity to the agent” value in test [1] is “SU-DHL4 and SU-DHL6 were the most sensitive cell lines”.
Regarding “BH3 domain peptide of murine NOXA, AELPPEFAAQLRKIGDKVYC (SEQ ID NO: 6) [NOXA A]”, the “cytochrome c release by peptide alone” value in the test on mouse liver mitochondria was “none of the sensitizer BH3 peptides by themselves can induce cytochrome c release significantly above background”. Further, the “displacement of BIM BH3 from MCL-1” value with GST-MCL-1 is reported as “efficiently displaces BIM from MCL-1”. For the same compound, the “percent killing by Annexin-V staining” value in [2] is recorded as “significantly greater than that with BAD”. Besides, the cytochrome c release entry in the test on CLL mitochondria is given as “do not”. Also, the “mitochondrial sensitivity to BH3 peptide” value in the test with SU-DHL6 is given as “weaker, but definite, response”.
